Reference: US6475953B1, “Composition and method for treating plants with exogenous chemicals” (Monsanto Technology LLC, priority 1996, dated 2002)

Tests used:
Assay type in all cases: in vivo
[1] = system: Prickly sida (Sida spinosa, SIDSP); experiment: Greenhouse herbicidal effectiveness test, percent inhibition, prickly sida
Source text: (§1) The herbicidal effectiveness data set forth herein report “inhibition” as a percentage following a standard procedure in the art which reflects a visual assessment of plant mortality and growth reduction by comparison with untreated plants, made by technicians specially trained to make and record such observations. In all cases. a single technician makes all assessments of percent inhibition within any one experiment or trial. Such measurements are relied upon and regularly reported by Monsanto Company in the course of its herbicide business.
(§2) The following procedure was used for testing compositions of the Examples to determine herbicidal effectiveness, except where otherwise indicated.
(§3) Seeds of the plant species indicated were planted in 85 mm square pots in a soil mix which was previously steam sterilized and prefertilized with a 14-14-14 NPK slow release fertilizer at a rate of 3.6 kg/m3. The pots were placed in a greenhouse with sub-irrigation. About one week after emergence, seedlings were thinned as needed, including removal of any unhealthy or abnormal plants, to create a uniform series of test pots.
(§4) The plants were maintained for the duration of the test in the greenhouse where they received a minimum of 14 hours of light per day. If natural light was insufficient to achieve the daily requirement, artificial light with an intensity of approximately 475 microeinsteins was used to make up the difference. Exposure temperatures were not precisely controlled but averaged about 27° C. during the day and about 18° C. during the night. Plants were sub-irrigated throughout the test to ensure adequate soil moisture levels.
(§5) A set of pots was left untreated as a reference against which effects of the treatments could later be evaluated.
(§6) Application of glyphosate compositions was made by spraying with a track sprayer fitted with a 9501E nozzle calibrated to deliver a spray volume of 93 liters per hectare (1/ha) at a pressure of 166 kilopascals (kPa). After treatment, pots were returned to the greenhouse until ready for evaluation.
(§7) Treatments were made using dilute aqueous compositions. These could be prepared as spray compositions directly from their ingredients, or by dilution with water of preformulated concentrate compositions.
For evaluation of herbicidal effectiveness, all plants in the test were examined by a single practiced technician, who recorded percent inhibition, a visual measurement of the effectiveness of each treatment by comparison with untreated plants. […]
Prickly sida (Sida spinosa, SIDSP) plants were grown and treated by the standard procedures given above. Applications of spray compositions were made 22 days after planting SIDSP, and evaluation of herbicidal inhibition was done 19 days after application.
Prickly sida (Sida spinosa, SIDSP) plants were grown and treated by the standard procedures given above. Applications of spray compositions were made 23 days after planting SIDSP, and […].
Prickly sida (Sida spinosa, SIDSP) plants were grown and treated by the standard procedures given above. Applications of spray compositions were made 22 days after planting SIDSP, and evaluation of herbicidal inhibition was done 19 days after application. […]

[2] = system: plant species indicated in the Example (ABUTH, ECHCF, SIDSP ...); experiment: Greenhouse herbicidal effectiveness test, stated overall or averaged over the plant species of the Example; details: statement in the discussion of the Example at the place; rates and comparators as stated there
Source text: as §1
The following procedure was used for testing compositions of the Examples to determine herbicidal effectiveness, except where otherwise indicated. […]
as §5
as §6, with “evaluation. […]” for “evaluation.”
(§8) For evaluation of herbicidal effectiveness, all plants in the test were examined by a single practiced technician, who recorded percent inhibition, a visual measurement of the effectiveness of each treatment by comparison with untreated plants.

[3] = system: Velvetleaf (Abutilon theophrasti, ABUTH); experiment: Greenhouse herbicidal effectiveness test, percent inhibition, velvetleaf
Source text: as §1, §2, §3, §4, §5, §6, §7, §8
(§9) Velvetleaf (Abutilon theophrasti, ABUTH) and Japanese millet (Echinochloa crus-galli, ECHCF) plants were grown and treated by the standard procedures given above. […]

[4] = system: Japanese millet (Echinochloa crus-galli, ECHCF); experiment: Greenhouse herbicidal effectiveness test, percent inhibition, Japanese millet; details: for % Inhibition ECHCF: Example 90, evaluation 11 days after application
Source text: as §1, §2, §3, §4, §5, §6, §7, §8, §9

[5] = Example 90, glufosinate rate 50 g a.i./ha, evaluation 11 days after application
[6] = Echinochloa crus-galli, 240 h, read-out: % Inhibition ECHCF
[7] = Sida spinosa, 240 h, read-out: % Inhibition SIDSP

For `COc1c(Cl)ccc(Cl)c1C(=O)O` [Dicamba (technical)], the “% Inhibition SIDSP” value ([1]; dicamba rate 25 g a.i./ha, evaluation 17 days after application) was 30%, the “% Inhibition SIDSP” value ([1]; dicamba rate 50 g a.i./ha, evaluation 17 days after application) was 40% and the “% Inhibition SIDSP” value ([1]; dicamba rate 100 g a.i./ha, evaluation 17 days after application) was 50%. The “% Inhibition SIDSP” value ([1]; dicamba rate 200 g a.i./ha, evaluation 17 days after application) was 58%.

ceteareth-30 was tested, and the “herbicidal effectiveness, overall for the species of the Example, in words” value [2] was “more effective additives for Formulation B than steareth-10”.

For `CP(=O)(O)CCC(N)C(=O)O` (stereo not drawn) [Glufosinate (technical)], the “% Inhibition ABUTH” value [3, 5] was 0%, the “% Inhibition ECHCF” value ([4]; glufosinate rate 50 g a.i./ha) was 0% and the “% Inhibition ECHCF” value ([4]; glufosinate rate 100 g a.i./ha) was 0%. The “% Inhibition SIDSP” value [1, 5] was 5% and the “% Inhibition SIDSP” value ([1]; Example 90, glufosinate rate 100 g a.i./ha, evaluation 11 days after application) was 10%.

Work on `O=C(O)c1cc(Oc2ccc(C(F)(F)F)cc2Cl)ccc1[N+](=O)[O-]` [Acifluorfen] yielded an inhibition at 25 g/ha ([3]; Abutilon theophrasti, 240 h, Example 83, acifluorfen rate 25 g a.i./ha, evaluated 10 days after application) of 20%, an inhibition at 50 g/ha ([3]; Abutilon theophrasti, 240 h, Example 83, acifluorfen rate 50 g a.i./ha, evaluated 10 days after application) of 32% and an inhibition at 100 g/ha ([3]; Abutilon theophrasti, 240 h, Example 83, acifluorfen rate 100 g a.i./ha, evaluated 10 days after application) of 52%. For the same compound, the inhibition at 200 g/ha ([3]; Abutilon theophrasti, 240 h, Example 83, acifluorfen rate 200 g a.i./ha, evaluated 10 days after application) was 62%, the inhibition at 25 g/ha [4, 6] was 2% and the inhibition at 50 g/ha [4, 6] was 7%. For the same compound, the inhibition at 100 g/ha [4, 6] was 18%, the inhibition at 200 g/ha [4, 6] was 35% and the inhibition at 25 g/ha [1, 7] was 15%. It also gave an inhibition at 50 g/ha [1, 7] of 17%, an inhibition at 100 g/ha [1, 7] of 35% and an inhibition at 200 g/ha [1, 7] of 40%.

With `COC(=O)NS(=O)(=O)c1ccc(N)cc1` [Asulam (technical)] the “% Inhibition ABUTH” value ([3]; asulam rate 400 g a.i./ha, evaluation 14 days after application) was 17%.

`O=C(O)CNCP(=O)(O)O` [glyphosate, N-phosphonomethylglycine, reference compound] was tested, and the “average inhibition of ABUTH” value ([3]; Example 27, average over four glyphosate rates, no excipient, 19 days after application) was 32%.

In the case of `C[N+](C)(C)CCCNS(=O)(=O)C(F)(F)C(F)(F)C(F)(F)C(F)(F)C(F)(F)C(F)(F)C(F)(F)C(F)(F)F.[I-]` [Fluorad FC-135, 3-(((heptadecafluorooctyl)sulfonyl)amino)-N,N,N-trimethyl-1-propaminium iodide], the “concentration of Fluorad FC-135 which had to be added in tank-mix to Formulation B to bring its herbicidal performance up to that of Formulation C” value (“concentration … of Formulation C” below) ([3]; Example 21, ABUTH, 20 days after application) is reported as about 0.02%, the optimum adjuvant concentration ([3]; Example 25, ABUTH, tank-mix adjuvant for glyphosate as Formulation B, 21 days after application) is reported as 0.2% and the “concentration … of Formulation C” value ([4]; Example 21, ECHCF, after application) is reported as “approximately 0.25%”. For the same compound, the optimum adjuvant concentration ([4]; Example 25, ECHCF, tank-mix adjuvant for glyphosate as Formulation B, 21 days after application) was 0.2% and the “concentration … of Formulation C” value ([1]; Example 21, SIDSP, 20 days after application) was about 0.1%.

For Steareth-20, the “herbicidal effectiveness, overall for the species of the Example, in words” value [2] was “more effective additives for Formulation B than steareth-10”.
